Source: PubChem BioAssay (NCI)
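At the GI50, growth is halved. TGI: concentration producing complete growth inhibition.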

Tests used:
Assay in all cases: growth of human tumour cells (NCI), 384-well format
[1] = system: U251 glioblastoma
[2] = system: SF-539 CNS
[3] = system: UACC-257 melanoma
[4] = system: HT29 colon
[5] = system: MALME-3M melanoma
[6] = system: OVCAR-4 ovarian
[7] = system: MDA-MB-468 breast
[8] = system: ACHN renal
[9] = system: MOLT-4 leukemia
[10] = system: NCI-H522 lung
[11] = system: HOP-62 NSCLC
[12] = system: NCI/ADR-RES ovarian
[13] = system: RPMI-8226 leukemia
[14] = system: M14 melanoma
[15] = system: HL-60(TB) leukemia
[16] = system: HCC-2998 colon
[17] = system: MCF7 breast
[18] = system: SNB-75 CNS
[19] = system: A498 renal
[20] = system: TK-10 renal
[21] = system: A549 NSCLC
[22] = system: SN12C renal
[23] = system: T-47D breast
[24] = system: HCT-116 colon
[25] = system: SW-620 colon
[26] = system: SK-MEL-5 melanoma
[27] = system: SK-OV-3 ovarian
[28] = system: MDA-MB-231 breast
[29] = system: EKVX NSCLC
[30] = system: 786-0 renal
[31] = system: CCRF-CEM leukemia
[32] = system: BT-549 breast
[33] = system: SF-268 CNS
[34] = system: UACC-62 melanoma
[35] = system: HOP-92 NSCLC
[36] = system: HCT-15 colon
[37] = system: UO-31 renal
[38] = system: OVCAR-8 ovarian
[39] = system: SR leukemia
[40] = system: IGROV1 ovarian
[41] = system: OVCAR-3 ovarian
[42] = system: HS 578T breast
[43] = system: NCI-H322M lung
[44] = system: SK-MEL-28 melanoma
[45] = system: CAKI-1 renal
[46] = system: PC-3 prostate
[47] = system: DU-145 prostate
[48] = system: MDA-MB-435 melanoma

C[C@@H]1CN(C(=O)c2ccc(NC(=O)c3cc(O[C@H](C)c4c(Cl)ccc(F)c4Cl)c(N)nn3)cc2)C[C@H](C)N1
GI50 [1]: 2 µM
TGI [1]: 5.25 µM
GI50 [2]: 2.02 µM
TGI [2]: 3.99 µM
GI50 [3]: 1.69 µM
TGI [3]: 3.07 µM
GI50 [4]: 1.22 µM
TGI [4]: 2.59 µM
GI50 [5]: 1.44 µM
TGI [5]: 3.08 µM
GI50 [6]: 4.1 µM
TGI [6]: 10.2 µM
GI50 [7]: 1.9 µM
TGI [7]: 3.7 µM
GI50 [8]: 3.05 µM
TGI [8]: 11.1 µM
GI50 [9]: 0.181 µM
TGI [9]: 0.356 µM
GI50 [10]: 1.99 µM
TGI [10]: 7.16 µM
GI50 [11]: 2.42 µM
TGI [11]: 7.03 µM
GI50 [12]: 14.8 µM
TGI [12]: 28.2 µM
GI50 [13]: 0.943 µM
TGI [13]: 2.49 µM
GI50 [14]: 2.47 µM
TGI [14]: 6.48 µM
GI50 [15]: 1.25 µM
TGI [15]: 2.51 µM
GI50 [16]: 2.14 µM
TGI [16]: 7.68 µM
GI50 [17]: 0.845 µM
TGI [17]: 4.77 µM
GI50 [18]: 2.21 µM
TGI [18]: 4.14 µM
GI50 [19]: 2.04 µM
TGI [19]: 3.88 µM
GI50 [20]: 3.5 µM
TGI [20]: 10.3 µM
GI50 [21]: 1.45 µM
TGI [21]: 5 µM
GI50 [22]: 1.82 µM
TGI [22]: 11.7 µM
GI50 [23]: 3.17 µM
TGI [23]: 8.97 µM
GI50 [24]: 1.41 µM
TGI [24]: 4.34 µM
GI50 [25]: 1.69 µM
TGI [25]: 3.48 µM
GI50 [26]: 1.53 µM
TGI [26]: 3.48 µM
GI50 [27]: 5.26 µM
TGI [27]: 16.2 µM
GI50 [28]: 1.74 µM
TGI [28]: 5.52 µM
GI50 [29]: 1.52 µM
TGI [29]: 5.93 µM
GI50 [30]: 1.86 µM
TGI [30]: 3.5 µM
GI50 [31]: 0.395 µM
TGI [31]: 1.01 µM
GI50 [32]: 2.39 µM
TGI [32]: 4.27 µM
GI50 [33]: 1.31 µM
TGI [33]: 3.77 µM
GI50 [34]: 1.34 µM
TGI [34]: 2.89 µM
GI50 [35]: 0.66 µM
TGI [35]: 2.42 µM
GI50 [36]: 2.46 µM
TGI [36]: 6.88 µM
GI50 [37]: 3.53 µM
TGI [37]: 12.4 µM
GI50 [38]: 3.44 µM
TGI [38]: 10.3 µM
TGI [39]: 0.0109 µM
GI50 [40]: 2.36 µM
TGI [40]: 10.2 µM
GI50 [41]: 2.75 µM
TGI [41]: 7.2 µM
GI50 [42]: 1.8 µM
TGI [42]: 3.44 µM
GI50 [43]: 5.08 µM
TGI [43]: 16.1 µM
GI50 [44]: 2.82 µM
TGI [44]: 7.32 µM
GI50 [45]: 2.16 µM
TGI [45]: 5.69 µM
GI50 [46]: 2.58 µM
TGI [46]: 7.16 µM
GI50 [47]: 3.89 µM
TGI [47]: 14.5 µM
GI50 [48]: 1.61 µM
TGI [48]: 6.93 µM

O=C1CC(c2ccc(N3CCOCC3)cc2)(c2ccsc2)NC(=O)C1Sc1ccccc1Cl (stereo not given)
GI50 [1]: 5.73 µM
TGI [1]: 65.7 µM
GI50 [2]: 23.3 µM
TGI [2]: > 100 µM
GI50 [3]: > 100 µM
TGI [3]: > 100 µM
GI50 [4]: 62.7 µM
TGI [4]: > 100 µM
GI50 [5]: > 51.2 µM
TGI [5]: > 100 µM
GI50 [6]: 34 µM
TGI [6]: > 100 µM
GI50 [7]: > 100 µM
TGI [7]: > 100 µM
GI50 [8]: 33 µM
TGI [8]: 98.7 µM
GI50 [9]: 9.17 µM
TGI [9]: 22 µM
GI50 [10]: 6.42 µM
TGI [10]: > 100 µM
GI50 [11]: 13.6 µM
TGI [11]: > 100 µM
GI50 [12]: 19.4 µM
TGI [12]: 41.5 µM
GI50 [13]: 10.5 µM
TGI [13]: 41.2 µM
GI50 [14]: 53.1 µM
TGI [14]: > 100 µM
GI50 [15]: 2.82 µM
GI50 [16]: > 100 µM
TGI [16]: > 100 µM
GI50 [17]: > 73.7 µM
TGI [17]: > 100 µM
GI50 [18]: > 100 µM
TGI [18]: > 100 µM
GI50 [19]: 18.5 µM
TGI [19]: > 88.7 µM
GI50 [20]: 75.9 µM
TGI [20]: > 100 µM
GI50 [21]: > 80.4 µM
TGI [21]: > 100 µM
GI50 [22]: 4.53 µM
TGI [22]: 23.4 µM
GI50 [23]: 66 µM
TGI [23]: > 100 µM
GI50 [24]: 36.8 µM
TGI [24]: > 100 µM
GI50 [25]: 16.7 µM
TGI [25]: > 51.8 µM
GI50 [26]: > 100 µM
TGI [26]: > 100 µM
GI50 [27]: > 85.3 µM
TGI [27]: > 100 µM
GI50 [28]: 13.9 µM
TGI [28]: > 100 µM
GI50 [29]: 98.9 µM
TGI [29]: > 100 µM
GI50 [30]: 2.71 µM
TGI [30]: > 21.3 µM
GI50 [31]: 3.39 µM
TGI [31]: > 21.9 µM
GI50 [32]: 3.71 µM
TGI [32]: 28.3 µM
GI50 [33]: 51.2 µM
TGI [33]: > 100 µM
GI50 [34]: 12.7 µM
TGI [34]: > 100 µM
GI50 [35]: 3.34 µM
TGI [35]: 18.7 µM
GI50 [36]: 63 µM
TGI [36]: > 100 µM
GI50 [37]: 33.7 µM
TGI [37]: > 100 µM
GI50 [38]: 3.45 µM
TGI [38]: 18.2 µM
GI50 [39]: 0.692 µM
TGI [39]: 1.74 µM
GI50 [40]: 46.5 µM
TGI [40]: > 100 µM
GI50 [41]: 34.2 µM
TGI [41]: > 100 µM
GI50 [42]: 1.76 µM
TGI [42]: 3.69 µM
GI50 [43]: > 100 µM
TGI [43]: > 100 µM
GI50 [44]: 66.7 µM
TGI [44]: > 100 µM
GI50 [45]: 52.7 µM
TGI [45]: > 100 µM
GI50 [46]: 43.6 µM
TGI [46]: > 100 µM
GI50 [47]: 53.9 µM
TGI [47]: > 100 µM
GI50 [48]: > 100 µM
TGI [48]: > 100 µM
